Results from the NIST ThermoML archive (doi:10.1021/je5010643).

Assay: refractive index (Na D-line) (dimensionless); xn = mol fraction of the nth substance listed
Settings: 101.32 kPa, Liquid, Standard Abbe refractometry

CC(C)C(=O)O [2-methylpropanoic acid] + C1COCCO1
refractive index
Settings | x2 = 0 | x2 = 0.1 | x2 = 0.2 | x2 = 0.3 | x2 = 0.4 | x2 = 0.5 | x2 = 0.6 | x2 = 0.7 | x2 = 0.8 | x2 = 0.9
295.15 K | 1.3919 | 1.3955 | 1.3988 | 1.4021 | 1.4052 | 1.4082 | 1.411 | 1.4137 | 1.4161 | 1.4185
298.15 K | 1.3907 | 1.3942 | 1.3974 | 1.4007 | 1.4038 | 1.4068 | 1.4096 | 1.4122 | 1.4146 | 1.4171
301.15 K | 1.3895 | 1.3929 | 1.3961 | 1.3993 | 1.4024 | 1.4054 | 1.4082 | 1.4107 | 1.4132 | 1.4156
304.15 K | 1.3883 | 1.3916 | 1.3948 | 1.3979 | 1.401 | 1.4039 | 1.4067 | 1.4093 | 1.4117 | 1.4141
307.15 K | 1.3872 | 1.3904 | 1.3936 | 1.3967 | 1.3997 | 1.4026 | 1.4054 | 1.4079 | 1.4103 | 1.4127
310.15 K | 1.386 | 1.3891 | 1.3923 | 1.3953 | 1.3983 | 1.4011 | 1.4038 | 1.4063 | 1.4087 | 1.4112
313.15 K | 1.3849 | 1.3879 | 1.391 | 1.3941 | 1.397 | 1.3998 | 1.4025 | 1.4049 | 1.4073 | 1.4098
